The record followed here is US11236052B2, “Aminobenzimidazole derivatives, treatments, and methods of inhibiting histone deacetylase” (TRANSLATIONAL DRUG DEVELOPMENT, LLC, priority 2017, dated 2022).

Structures are written as SMILES. Where two headings read alike, the source gives them in different places.

One data set concerns MM1.S cells. Kind of data set: CellTiter-Glo cell viability assay, MM1.S cells. It is filed as cell-based, human. As to conditions: Homo sapiens; MM1.S cells, 72 hours treatment; read-out: IC50 in MM1.S. How it is done:
Cell viability in the presence of varying concentrations of the above listed compounds at different time points was used to assess cytotoxicity and the effect of the compounds on cell proliferation.
Cell Viability Assay—Cell viability was measured by the CellTiter-GlO® cell viability assay from Promega (Madison, Wis.). The CellTiter-GlO® Luminescent Cell Viability Assay is a homogeneous method to determine the number of viable cells in culture based on quantitation of the ATP present, which signals the presence of metabolically active cells. Following treatment, CellTiter-GlO® is added to treatment wells and incubated at 37° C. luminescence values were measured at using a Molecular Devices Spectramax microplate reader
(§1) Single Agent Studies—Cells were grown to 70% confluency, trypsinized, counted, and seeded in 96 well flat-bottom plates at a final concentration of 2.5×10^3-5×10^3 cells/well (Day 0). Cells were allowed to incubate in growth media for 24 hours. Treatment with the test agents or standard agents began on Day 1 and continued for 72 hours. At the 72 hour timepoint, treatment containing media was removed. Viable cell numbers are quantified by the CellTiter-GlO® cell viability assay as described above. Results from these studies were used to calculate an IC50 value (concentration of drug that inhibits cell growth by 50 percent of control) for each compound.
Data Collection—For single agent and combination studies, data from each experiment was collected and expressed as % Cell Growth using the following calculation: Cell Growth=(ftest/fvehicle)×100
Where ftest is the fluorescence of the tested sample, and fvehicle is the fluorescence of the vehicle in which the drug is dissolved. Dose response graphs and IC50 values were generated using Prism 6 software (GraphPad) using the following equation: […]
Where X is the logarithm of concentration and Y is the response. Y starts at the Bottom and goes to Top with a sigmoid shape.
Cell Viability Assay—Cell viability was measured by the CellTiter-Glo® cell viability assay Promega (Madison, Wis.). The CellTiter-Glo® Luminescent Cell Viability Assay is a homogeneous method to determine the number of viable cells in culture based on quantitation of the ATP present, which signals the presence of metabolically active cells. Following treatment, CellTiter-Glo® is added to treatment wells and incubated at 37° C. luminescence values were measured at using a Molecular Devices Spectramax microplate reader.
as §1, with “agents” for “agents or standard agents”, “72-hour time point, treatment-containing” for “72 hour timepoint, treatment containing”, “CellTiter-Glo®” for “CellTiter-GlO®”, “above. Experiments were run with triplicate concentrations to determine growth inhibitory activity.” for “above.”
Data Collection—For single agent and combination studies, data from each experiment was collected and expressed as % Cell Growth using the following calculation: % Cell Growth=(ftest/fvehicle)×100
Where ftest is the luminescence of the tested sample, and fvehicle is the luminescence of the vehicle in which the drug is dissolved. Dose response graphs and IC50 values were generated using Prism 6 software (GraphPad).
For orientation: ATP-based viability assays read luminescence as a measure of living cells.

The next data set concerns the target HDAC1 (Homo sapiens (Human), UniProt Q13547). Kind of data set: In vitro HDAC enzyme inhibition, mobility shift. In kind it is biochemical. As to conditions: purified enzyme. How it is done: (§2) Purified histone deacetylase enzymes 1, 3, 6, 10 were incubated with fluorescently labeled substrate and test compounds in a standardized reaction mixture in 384 well plates. Upon termination of the reaction, samples were introduced onto microfluidic chips. Samples migrate through channels in the chips and product and substrate are separated based on the difference in their charge and mass (electrophoretic mobility shift). Enzyme activity is measured by direct comparison of the fluorescence in the product and substrate peaks and the results presented in Table 4.

In another data set the target is HDAC10 (Homo sapiens (Human), UniProt Q969S8). Kind of data set: In vitro HDAC enzyme inhibition, mobility shift. In kind it is biochemical. As to conditions: purified enzyme. How it is done:
as §2

In another data set the target is HDAC3 (Homo sapiens (Human), UniProt O15379). Description: In vitro HDAC enzyme inhibition, mobility shift. The conditions noted are these: purified enzyme. It is filed as biochemical. As to the method: as §2
The next data set deals with HDAC6 (Homo sapiens (Human), UniProt Q9UBN7). Description: In vitro HDAC enzyme inhibition, mobility shift. It is filed as biochemical. As to conditions: purified enzyme. How it is done:
as §2

The nature of another data set: Permeability (PAMPA). It is filed as in vitro ADME. As to conditions: read-out: Permeabiltiy (PAMPA).
The nature of the next data set: S9 in vitro half-life. In kind it is in vitro ADME. The conditions noted are these: S9 fraction.
Data set [1] can be described thus: Pharmacokinetic studies in the mouse. In kind it is in vivo. How it is done:
Plasma samples were collected from healthy mice and analyzed for levels of compound ID #1, ID #2, and ID #3 and reported in Table 5. In brief, compounds were individually and accurately weighed out to produce a stock solution in Dimethyl-sulfoxide (DMSO) at a concentration of 2 mg/mL and stored at −20° C. From the stock solution, a working stock was prepared by diluting it in Methanol-Water 50:50 (v/v) at 20 μg/mL for calibration curve preparation and stored at 4° C. Standards used for quantitation and quality control samples (QC's) were prepared on the same day of sample processing using blank plasma obtained from non-treated mice. For each analyte, standards were prepared through serial dilution of the working stock at concentrations of 0.1, 0.5, 1.0, 10, 50, 100, 500 and 1000 ng/mL; QC's were prepared at intermediate concentrations of 0.75, 7.5, 75 and 750 ng/mL. Plasma samples were stored at −80° C. until ready for analysis and then placed on ice for thawing. An aliquot of 20 μL for samples, standards and QC's, were transferred into a 96-well extraction plate according to a pre-defined layout. Appropriate volume of Methanol-Formic Acid 99.9-0.1 containing internal standard (Verapamil at 25 ng/mL) was added to each well and samples were extracted under vacuum. Eluent was then transferred into a LCMS plate for analysis using a suitable column for separation and MRM detection. Concentration of analytes was calculated based on the calibration curve and analyzed for pharmacokinetic parameters by using Non-compartmental analysis (NCA) using WinNonlin Phoenix software. Parameters such as Cmax, Tmax, half-life, AUC(0-last), AUC(0-∞), volume of distribution (Vss) and clearance (Cl/F) were reported.
The analogs were tested for pharmacokinetic analysis in the mouse with doses of 1 mg/kg for intravenous (IV) route and 5 mg/kg for oral (P0) route. […] Overall exposure following IV dose also favored compound ID #1 with AUCO-∞ 1488.1 hr*ng/mL whereas compound ID #2 and ID #3 were 329.1 and 1193.7 hr*ng/mL, respectively.

Sequence of HDAC10 (Q969S8 whole entry): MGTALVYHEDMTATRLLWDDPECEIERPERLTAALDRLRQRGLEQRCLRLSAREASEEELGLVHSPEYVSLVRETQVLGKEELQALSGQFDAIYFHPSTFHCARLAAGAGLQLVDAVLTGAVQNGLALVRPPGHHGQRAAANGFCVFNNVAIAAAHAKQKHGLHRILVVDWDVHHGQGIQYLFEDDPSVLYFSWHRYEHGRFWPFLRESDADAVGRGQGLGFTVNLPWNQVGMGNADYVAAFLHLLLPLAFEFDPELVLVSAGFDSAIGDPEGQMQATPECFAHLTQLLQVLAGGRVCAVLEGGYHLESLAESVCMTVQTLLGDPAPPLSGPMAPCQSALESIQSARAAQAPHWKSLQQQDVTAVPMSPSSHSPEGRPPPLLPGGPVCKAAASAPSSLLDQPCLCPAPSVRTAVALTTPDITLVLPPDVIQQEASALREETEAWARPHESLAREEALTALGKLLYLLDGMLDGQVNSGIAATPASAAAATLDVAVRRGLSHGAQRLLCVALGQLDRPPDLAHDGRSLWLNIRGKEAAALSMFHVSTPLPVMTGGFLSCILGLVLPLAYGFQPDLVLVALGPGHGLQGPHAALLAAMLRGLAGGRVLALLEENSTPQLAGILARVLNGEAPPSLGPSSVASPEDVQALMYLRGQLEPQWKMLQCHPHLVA
Sequence of HDAC1 (Q13547 whole entry): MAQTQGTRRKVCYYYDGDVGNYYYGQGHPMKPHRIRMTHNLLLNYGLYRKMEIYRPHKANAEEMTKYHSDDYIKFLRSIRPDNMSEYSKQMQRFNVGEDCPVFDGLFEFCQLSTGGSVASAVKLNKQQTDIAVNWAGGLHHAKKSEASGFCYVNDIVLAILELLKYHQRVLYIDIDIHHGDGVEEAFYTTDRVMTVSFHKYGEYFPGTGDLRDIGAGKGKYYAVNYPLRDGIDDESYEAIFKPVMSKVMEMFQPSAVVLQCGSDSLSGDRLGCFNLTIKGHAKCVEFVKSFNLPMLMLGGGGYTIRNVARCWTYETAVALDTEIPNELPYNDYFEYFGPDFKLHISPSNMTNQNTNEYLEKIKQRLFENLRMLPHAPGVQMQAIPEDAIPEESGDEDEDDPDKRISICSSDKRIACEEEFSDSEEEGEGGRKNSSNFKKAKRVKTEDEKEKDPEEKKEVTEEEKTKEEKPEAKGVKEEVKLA
Sequence of HDAC3 (O15379 whole entry): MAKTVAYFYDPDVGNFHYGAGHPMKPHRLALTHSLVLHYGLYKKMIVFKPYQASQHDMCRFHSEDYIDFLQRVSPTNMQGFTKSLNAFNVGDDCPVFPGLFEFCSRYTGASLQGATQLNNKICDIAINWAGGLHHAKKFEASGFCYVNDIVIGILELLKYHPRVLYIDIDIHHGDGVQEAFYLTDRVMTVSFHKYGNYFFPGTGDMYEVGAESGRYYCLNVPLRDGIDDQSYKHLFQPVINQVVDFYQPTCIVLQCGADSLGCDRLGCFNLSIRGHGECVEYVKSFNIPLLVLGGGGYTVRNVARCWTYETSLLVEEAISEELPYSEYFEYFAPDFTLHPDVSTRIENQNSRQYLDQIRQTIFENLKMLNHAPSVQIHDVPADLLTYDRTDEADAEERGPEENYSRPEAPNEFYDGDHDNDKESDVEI
Sequence of HDAC3 (Q9Y618 395-489 partner): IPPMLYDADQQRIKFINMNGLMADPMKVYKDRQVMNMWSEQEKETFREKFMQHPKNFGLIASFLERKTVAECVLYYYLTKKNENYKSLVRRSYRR
Sequence of HDAC6 (Q9UBN7 whole entry): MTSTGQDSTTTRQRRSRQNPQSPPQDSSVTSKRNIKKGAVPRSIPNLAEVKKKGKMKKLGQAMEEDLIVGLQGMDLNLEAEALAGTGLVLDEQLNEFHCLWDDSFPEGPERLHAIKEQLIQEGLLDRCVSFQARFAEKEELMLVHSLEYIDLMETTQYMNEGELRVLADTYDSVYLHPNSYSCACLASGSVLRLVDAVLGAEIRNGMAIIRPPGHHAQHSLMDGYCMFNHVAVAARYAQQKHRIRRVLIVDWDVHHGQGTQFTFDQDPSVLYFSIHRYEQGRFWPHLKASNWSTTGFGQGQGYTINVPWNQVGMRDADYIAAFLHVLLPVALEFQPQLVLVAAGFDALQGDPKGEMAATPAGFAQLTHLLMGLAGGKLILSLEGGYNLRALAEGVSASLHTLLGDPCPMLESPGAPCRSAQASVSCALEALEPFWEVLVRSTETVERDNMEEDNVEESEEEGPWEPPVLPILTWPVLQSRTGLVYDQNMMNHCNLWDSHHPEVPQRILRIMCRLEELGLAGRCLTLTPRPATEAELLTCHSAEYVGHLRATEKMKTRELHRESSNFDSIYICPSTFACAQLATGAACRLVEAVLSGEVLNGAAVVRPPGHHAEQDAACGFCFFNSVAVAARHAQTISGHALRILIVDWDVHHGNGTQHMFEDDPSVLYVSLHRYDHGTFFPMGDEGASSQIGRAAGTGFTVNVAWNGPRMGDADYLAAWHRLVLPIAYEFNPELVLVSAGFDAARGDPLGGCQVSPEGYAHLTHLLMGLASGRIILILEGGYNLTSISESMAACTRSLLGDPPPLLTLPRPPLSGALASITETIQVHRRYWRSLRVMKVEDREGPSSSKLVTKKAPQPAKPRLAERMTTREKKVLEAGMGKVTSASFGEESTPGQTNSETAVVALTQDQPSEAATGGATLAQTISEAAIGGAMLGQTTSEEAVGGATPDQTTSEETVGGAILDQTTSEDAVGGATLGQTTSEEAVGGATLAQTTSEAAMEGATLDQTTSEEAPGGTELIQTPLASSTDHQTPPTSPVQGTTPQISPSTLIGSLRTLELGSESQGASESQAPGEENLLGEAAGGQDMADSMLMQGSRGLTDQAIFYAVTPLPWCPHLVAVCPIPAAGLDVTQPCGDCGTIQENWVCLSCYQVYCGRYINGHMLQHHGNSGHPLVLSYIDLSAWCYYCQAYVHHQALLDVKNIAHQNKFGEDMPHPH

In the case of `O=C(NO)c1ccc(Nc2nc3cc(F)ccc3n2CC2CCOCC2)cc1` [ID #10, 4-((5-fluoro-1-((tetrahydro-2H-pyran-4-yl)methyl)-1H-benzo[d]imidazol-2-yl)amino)-N-hydroxybenzamide], in the data set with MM1.S cells, the concentration for half-maximal inhibition (IC50) turned out to be 2900 nM.
On the same count and under the same terms, with `O=C(NO)c1ccc(Nc2nc3ccccc3n2CC2CCOCC2)cc1` [ID #9, N-hydroxy-4-((1-((tetrahydro-2H-pyran-4-yl)methyl)-1H-benzo[d]imidazol-2-yl)amino)benzamide] the figure was 2900 nM.
For the compound `O=C(NO)c1ccc(Nc2nc3ccccc3n2C2CCCCC2)cc1` [ID #2, 4-((1-cyclohexyl-1H-benzo[d]imidazol-2-yl)amino)-N-hydroxybenzamide], the IC50 on HDAC1 turned out to be 0.385 µM; at HDAC10, 3.56 µM; at HDAC3, 0.068 µM; on HDAC6 it was 0.015 µM; with MM1.S cells, 2000 nM. In “Permeability (PAMPA)”, the Papp came to 1.65 ×10⁻⁶ cm/s. Besides, the half-life in the data set “S9 in vitro half-life” is > 1.5 h; in data set [1] (1.0 mg/kg IV) it was 1.20 h; in data set [1] (plasma, 1.0 mg/kg IV, read-out: Half-life (converted)) it was 1.2 h; in data set [1] (plasma, 5.0 mg/kg PO, read-out: Half-life (converted)), 2.56 h. Also, in data set [1] (1.0 mg/kg IV), the “AUC0-∞” value came out at 329.14 ng·h/mL. Further, the “AUC % Extrap” value in data set [1] (1.0 mg/kg IV) is on record as 1.44%; in data set [1] (5.0 mg/kg PO), 0.14%. Also, the Cl/F obs in data set [1] (1.0 mg/kg IV) worked out at 50.7 mL/min/kg. For the same compound, the “Rsq (>0.85)” value is listed as 0.85 in data set [1] (1.0 mg/kg IV) and 1.00 in data set [1] (5.0 mg/kg PO). Besides, the highest concentration (Cmax) in data set [1] (5.0 mg/kg PO) was found to be 407.10 ng/mL; in data set [1] (plasma, iv, 1 mg/kg, 1.0 mg/kg IV, read-out: Cmax), 508 ng/mL; in data set [1] (plasma, po, 5 mg/kg, 5.0 mg/kg PO, read-out: Cmax), 407 ng/mL. In addition, the exposure AUC(0-t) came to 324 ng·h/mL in data set [1] (plasma, 1.0 mg/kg IV) and 1280 ng·h/mL in data set [1] (plasma, 5.0 mg/kg PO). In addition, the time of peak concentration (Tmax) in data set [1] (plasma, 1.0 mg/kg IV) turned out to be 0.08 h; in data set [1] (plasma, 5.0 mg/kg PO), 0.5 h. Moreover, in data set [1] (plasma, 1.0 mg/kg IV, read-out: Vss), the Vd stood at 3.5 L/kg. In data set [1] (plasma, 5.0 mg/kg PO), this compound showed a CL/F of 65.2 mL/min/kg. Further, the bioavailability in data set [1] (plasma, 5.0 mg/kg PO) is 77.6%. Also, the Vd/F in data set [1] (plasma, 5.0 mg/kg PO, read-out: Vz/F obs) came out at 14.5 L/kg. The AUC(0-inf) in data set [1] (plasma, iv, 1 mg/kg, 1.0 mg/kg IV, read-out: AUC0-∞) was 329 ng·h/mL; in data set [1] (plasma, po, 5 mg/kg, 5.0 mg/kg PO, read-out: AUC0-∞), 1280 ng·h/mL; in data set [1] (plasma, po, 5 mg/kg, 5 mg/kg oral, read-out: AUC0-∞ (overall exposure following oral doses)), 1280 ng·h/mL.
Consider `O=C(NO)c1ccc(Nc2nc3cc(F)ccc3n2CC2CCC(F)(F)CC2)cc1` [ID #8], for which, in the data set with MM1.S cells, the half-inhibitory concentration (IC50) was determined as 1200 nM.
On to `O=C(NO)c1ccc(Nc2nc3ccccc3n2CC2CCC(F)(F)CC2)cc1` [ID #7], for which the IC50 in the data set on MM1.S cells amounted to 700 nM.
For the compound `O=C(NO)c1ccc(Nc2nc3ccccc3n2CC2(F)CCCCC2)cc1` [ID #4], the IC50 in the data set with MM1.S cells amounted to 2600 nM.
Turning to `O=C(NO)c1ccc(Nc2nc3ccccc3n2CC2CCCC2)cc1` [ID #5, 4-((1-(cyclopentylmethyl)-1H-benzo[d]imidazol-2-yl)amino)-N-hydroxybenzamide], in the data set with MM1.S cells, the IC50 worked out at 2200 nM.
The same measure, in the same setting: with `O=C(NO)c1ccc(Nc2nc3ccccc3n2CCC2CCCC2)cc1` [ID #6, 4-((1-(2-cyclopentylethyl)-1H-benzo[d]imidazol-2-yl)amino)-N-hydroxybenzamide] the figure was 1100 nM.

As a reminder, the IC50 is the midpoint of a concentration-inhibition curve. In general, half-life refers to how long it takes for the measured level to halve. Broadly, the Cmax is the peak of the concentration-time curve. A word on the AUC(0-t): it is the area under the concentration-time curve up to a stated or last time point. In general, Tmax refers to the time at which the peak concentration occurs. Usually CL/F stands for clearance divided by bioavailability, as obtained after extravascular dosing. Broadly, the bioavailability is the share of a dose that reaches the circulation, judged against a reference dose that is usually intravenous. Read a high bioavailability as good availability.
